Laboratory results: BindingDB's records for doi:10.1021/acsmedchemlett.9b00264 (Xiamen University, 2019)

Legend:
[1] = Inhibition of JMJD6 in human […] cells assessed as decrease in cell proliferation measured after 72 hrs by CellTiter 96 AQueous one solution cell proliferation assay
[2] = Inhibition of JMJD6 in human HeLa cells assessed as decrease in cell proliferation measured after 72 hrs by CellTiter 96 AQueous one solution cell proliferation assay

IC50 [1]: 10.2 µM
IC50 [2]: 2.44 µM
SMILES: Cc1ccc2oc(=O)c(-c3nc4cnccc4[nH]3)cc2c1
